“Also recorded” adds a separate entry of the source.

The first assay concerns Aβ plaque. As to the kind of experiment: Staining of tissue sections with the dyes, fluorescence microscopy: Aβ deposits in brain/hippocampus. Format: binding, human. The note with it: hippocampus, AD+, DAPI filter. Here is the method: (§1) Tissue samples were fixed in 10% buffered formalin solution and embedded in paraffin. Slices of 4 μm thickness were prepared using a microtome and mounted on a slide in a water bath. Deparaffinization was carried out according to the following steps:
(§2) Xylene 15 min, 100% ethanol 10 min, 96% ethanol 10 min, 70% ethanol 10 min and storage in water until staining.
(§3) Staining with dyes of this invention was subsequently performed according to the following procedure steps:
(§4) Dyes of the present invention were applied in 0.01-1% ethanolic or methanolic solution dropwise onto the tissue section (50-200 μL) and incubated in a moist, EtOH/MeOH saturated and light-protected chamber for 10 min.
(§5) In the case of poorly soluble substances, up to 10% DMSO were added and, if required, filtered through a syringe filter (0.45 μm pore size).
(§6) Samples were stained with dyes of the present invention as described in example 21 and subsequently investigated using a Zeiss Axioskop, ABO 100 Hg fluorescent lamp, camera: Leica DFC300FX. Depending on the respective dye used, either a FITC filter or a DAPI filter was utilized.
In the case of `C(=N/Nc1ccc(-c2nc3ccccc3s2)cc1)/c1cccnc1` [BSc4337, (Z)-1-(4-(benzo[d]thiazol-2-yl)phenyl)-2-((pyridine-3-yl)methylene)hydrazine], the “Structure stained by the dye” value was “Aβ plaque”.

In the case of `CN(C)c1ccc(/C=C/c2cnc(/C=C/c3ccc(N(C)C)cc3)cn2)cc1` [BSc4352, 4,4′-(1E,1′E)-2,2′-(pyrazine-2,5-diyl)bis(ethene-2,1-diyl)bis(N,N-dimethylaniline)], the “Structure stained by the dye” value is given as “Aβ plaque”.

As for `Cn1c2ccccc2c2cc(/C=N\Nc3ccc(-c4nc5ccccc5s4)cc3)ccc21` [BSc4342, (Z)-1-(4-(benzo[d]thiazol-2-yl)phenyl)-2-((9-methyl-9H-carbazol-3-yl)methylene)hydrazin], the “Structure stained by the dye” value is “Aβ plaque”.

Turning to `O=C(NCc1cccc(F)c1)Nc1ccc2nonc2c1` [BSc4138, 1-(Benzo[c][1,2,5]oxadiazol-5-yl)-3-(3-fluorobenzyl)urea], the “Structure stained by the dye” value is “Aβ plaque”.

Regarding `CSc1nc(/C=C/c2ccc(N(C)C)cc2)cc(/C=C/c2ccc(N(C)C)cc2)n1` [BSc4097, 4,4′-(1E,1′E)-2,2′-(2-(methylthio)pyrimidine-4,6-diyl)bis(ethene-2,1-diyl)bis(N,N-dimethylaniline)], the “Structure stained by the dye” value is “Aβ plaque”.

`CN(C)c1ccc(/C=C/c2cc(/C=C/c3ccc(N(C)C)cc3)ncn2)cc1` [BSc4090, 4-((1E)-2-(6-(4-(dimethylamino)styryl)pyrimidine-4-yl)vinyl)-N,N-dimethylbenzenamine]: the “Structure stained by the dye” value was “Aβ plaque”.

As to `C(=C\c1cccc2ccccc12)/c1cc(/C=C/c2cccc3ccccc23)ncn1` [BSc4328, 4,6-Bis((E)-2-(naphthalene-1-yl)vinyl)pyrimidine], the “Structure stained by the dye” value is “Aβ plaque”.

Still in this assay, the particulars now being: hippocampus, AD+, FITC filter.
In the case of `Cn1cccc1/C=C/c1cc(/C=C/c2cccn2C)ncn1` [BSc4327, 4,6-Bis((E)-2-(1-methyl-1H-pyrrol-2-yl)vinyl)pyrimidine], the “Structure stained by the dye” value is listed as “Aβ in angiopathy”.

Turning to `COc1ccc(/C=C/c2cnc(/C=C/c3ccc(OC)cc3)cn2)cc1` [BSc4354, 2,5-Bis(4-methoxystyryl)pyrazine], the “Structure stained by the dye” value is on record as “Aβ in angiopathy; also recorded: Aβ plaque”.

As to `Cn1cccc1/C=C/c1cnc(/C=C/c2cccn2C)cn1` [BSc4353, 2,5-Bis((E)-2-(1-methyl-1H-pyrrol-2-yl)vinyl)pyrazine], the “Structure stained by the dye” value is given as “Aβ in angiopathy; also recorded: Aβ plaque”.

With `CN(C)c1ccc(/C=C/c2cc(/C=C/c3ccc(N(C)C)cc3)ncn2)cc1` [BSc4090, 4-((1E)-2-(6-(4-(dimethylamino)styryl)pyrimidine-4-yl)vinyl)-N,N-dimethylbenzenamine], the “Structure stained by the dye” value is “Aβ plaque”.

Another assay relates to Tau fibril. As to the kind of experiment: Staining of tissue sections with the dyes, fluorescence microscopy: Tau in hippocampus. Format: binding, human. As to conditions: person, AD, DAPI filter. Here is the method: as §1, §2, §3, §4, §5, §6
Consider `O=C(NCc1cccc(F)c1)Nc1ccc2nonc2c1` [BSc4138, 1-(Benzo[c][1,2,5]oxadiazol-5-yl)-3-(3-fluorobenzyl)urea], for which the “Structure stained by the dye” value is “Tau fibril”.

Take `CCN(CC)c1ccc2cc(-c3csc(NNC(=O)c4cccnc4)n3)c(=O)oc2c1` [BSc4007, N′-(4-(7-(diethylamino)-2-oxo-2H-chromen-3-yl)thiazol-2-yl)nicotinohydrazide]: the “Structure stained by the dye” value is reported as “Tau fibril”.
